# Experimental data taken from the RepoRT retention time repository (doi:10.1016/j.scitotenv.2015.09.145).
# Assay: Waters Atlantis T3, 100 × 2.1 mm, 3 µm, 0.1 mL/min, estimated dead time 2.2 min; A: water + 0.01% formic acid; B: methanol; gradient (min/%B) 0/2 3/2 20/100 29/100
# Conditions: stereoisomer not certain
row,Compound,LC retention time [min]
1,CN1CCC23c4c5ccc(O)c4OC2C(O)C=CC3C1C5 (stereo not given),10.1
2,CC(=O)OC1C=CC2C3Cc4ccc(O)c5c4C2(CCN3C)C1O5 (stereo not given),13
3,CC1c2cccc(O)c2C(O)=C2C(=O)C3(O)C(O)=C(C(N)=O)C(=O)C(N(C)C)C3C(O)C21 (stereo not given),17.7
4,Nc1ccc(S(=O)(=O)Nc2nccs2)cc1,13.5
5,CN1CCN2c3ncc(O)cc3Cc3ccccc3C2C1 (stereo not given),14.4
6,CC=C1N(C)C(C)CC1(c1ccccc1)c1ccccc1 (stereo not given),16.9
7,c1ccc2c(c1)Cc1cccnc1N1CCNCC21 (stereo not given),15.7
8,CC(N)Cc1ccccc1 (stereo not given),13.3
9,COc1ccc(C(CN(C)C)C2(O)CCCCC2)cc1 (stereo not given),16.6
10,Cc1ccc(-c2nc3ccc(C)cn3c2CC(=O)N(C)C)cc1,15.5
11,Nc1nc(N)c2nc(-c3ccccc3)c(N)nc2n1,14.7
12,CNC(=C[N+](=O)[O-])NCCSCc1ccc(CN(C)C)o1,11.8
13,CCCC1CC(C(=O)NC(C(C)O)C2OC(SC)C(O)C(O)C2O)N(C)C1 (stereo not given),13.3
14,COc1cc(NS(=O)(=O)c2ccc(N)cc2)ncn1,15.2
15,Cn1c(=O)c2[nH]cnc2n(C)c1=O,14.3
16,CNCCC(Oc1cccc2ccccc12)c1cccs1 (stereo not given),18.7
17,CNCC(c1ccc(OC)cc1)C1(O)CCCCC1 (stereo not given),14.8
18,CCC(=O)C(CC(C)N(C)C)(c1ccccc1)c1ccccc1 (stereo not given),18.5
19,CC(C)CC(CN)CC(=O)O (stereo not given),13.2
20,CN(C)CCCN1c2ccccc2CCc2ccccc21,18.6
21,CCC1OC(=O)C(C)C(OC2CC(C)(OC)C(O)C(C)O2)C(C)C(OC2OC(C)CC(N(C)C)C2O)C(C)(O)CC(C)CN(C)C(C)C(O)C1(C)O (stereo not given),17.4
22,CN(C)CCC=C1c2ccccc2CCc2ccccc21,18.9

row,Compound,LC retention time [min]
1,Cc1cc2c(s1)Nc1ccccc1N=C2N1CCN(C)CC1,20.4
2,CNC(C)C(O)c1ccccc1 (stereo not given),12.4
3,Cc1ccnc(NS(=O)(=O)c2ccc(N)cc2)n1,14.2
4,CCn1cc(C(=O)O)c(=O)c2cc3c(cc21)OCO3,20.1
5,CCN(CC)C(=O)C1C=C2c3cccc4[nH]cc(c34)CC2N(C)C1 (stereo not given),15.8
6,OCCOCCN1CCN(C2=Nc3ccccc3Sc3ccccc32)CC1,17.6
7,COC(=O)C1C(OC(=O)c2ccccc2)CC2CCC1N2C (stereo not given),14.9
8,CC(C)NCC(O)COc1cccc2ccccc12 (stereo not given),17.1
9,COc1ccc2c3c1OC1C(=O)CCC4(O)C(C2)N(C)CCC314 (stereo not given),12.6
10,COCC(NC(C)=O)C(=O)NCc1ccccc1 (stereo not given),16.8
11,CN1C2CCC1C(C(=O)O)C(OC(=O)c1ccccc1)C2 (stereo not given),15.7
12,CN1CCN2c3ncccc3Cc3ccccc3C2C1 (stereo not given),15.5
13,Nc1ccc(S(=O)(=O)Nc2cnc3ccccc3n2)cc1,17.8
14,CCNC(C)Cc1ccc2c(c1)OCO2 (stereo not given),14.1
15,CCC(C(N)=O)N1CCCC1=O (stereo not given),13.6
16,CC(=O)Oc1ccc2c3c1OC1C(OC(C)=O)C=CC4C(C2)N(C)CCC341 (stereo not given),14.7
17,CNCCC=C1c2ccccc2CCc2ccccc21,19.1
18,CC(=O)C1CCC2C3CCC4=CC(=O)CCC4(C)C3CCC12C (stereo not given),24.7
19,CNC(C)Cc1ccccc1 (stereo not given),13.5
20,Nc1ccc(S(=O)(=O)Nc2ccccn2)cc1,13.8
21,CCCCC(=O)N(Cc1ccc(-c2ccccc2-c2nn[nH]n2)cc1)C(C(=O)O)C(C)C (stereo not given),23.2
22,COCCc1ccc(OCC(O)CNC(C)C)cc1 (stereo not given),15

row,Compound,LC retention time [min]
1,CCN1CCCC1CNC(=O)c1cc(S(N)(=O)=O)ccc1OC (stereo not given),11.6
2,CN(C)C1C(=O)C(C(N)=O)=C(O)C2(O)C(=O)C3=C(O)c4c(O)cccc4C(C)(O)C3CC12 (stereo not given),14.8
3,COc1ccc2c3c1OC1C(O)C=CC4C(C2)N(C)CCC341 (stereo not given),12.2
4,Nc1ccc(S(=O)(=O)Nc2ncccn2)cc1,13.2
5,NC(N)=NS(=O)(=O)c1ccc(N)cc1,7.11
6,NC(=O)N1c2ccccc2C=Cc2ccccc21,20.1
7,CCC(C)(C)C(=O)OC1CC(C)C=C2C=CC(C)C(CCC3CC(O)CC(=O)O3)C21 (stereo not given),27
8,CN(C)CCC=C1c2ccccc2COc2ccccc21,17.6
9,COc1cccc(C2(O)CCCCC2CN(C)C)c1 (stereo not given),14.6
10,NC(=O)N1c2ccccc2CC(=O)c2ccccc21,18.8
11,CCC1OC(=O)C(C)C(OC2CC(C)(OC)C(O)C(C)O2)C(C)C(OC2OC(C)CC(N(C)C)C2O)C(C)(OC)CC(C)C(=O)C(C)C(O)C1(C)O (stereo not given),19.6
12,CC(=O)Nc1ccc(O)cc1,13.1
13,CNC(C)Cc1ccc2c(c1)OCO2 (stereo not given),17.4
14,Cc1nnc(NS(=O)(=O)c2ccc(N)cc2)s1,14.8
15,COc1ncnc(NS(=O)(=O)c2ccc(N)cc2)c1OC,16
16,CCN(CC)CC(=O)Nc1c(C)cccc1C,14.2
17,CCN(C)C(=O)Oc1cccc(C(C)N(C)C)c1 (stereo not given),14.8
18,Cc1ccsc1C(=CCCN1CCCC(C(=O)O)C1)c1sccc1C (stereo not given),19.6
19,CN(C)C1C(=O)C(C(N)=O)=C(O)C2(O)C(=O)C3=C(O)c4c(O)cccc4C(C)(O)C3C(O)C12 (stereo not given),15.1
20,Cc1cc(NS(=O)(=O)c2ccc(N)cc2)no1,15.7
21,NCC1(CC(=O)O)CCCCC1,13.3
22,CCC1OC(=O)C(C)C(OC2CC(C)(OC)C(O)C(C)O2)C(C)C(OC2OC(C)CC(N(C)C)C2O)C(C)(O)CC(C)C(=O)C(C)C(O)C1(C)O (stereo not given),18.5

row,Compound,LC retention time [min]
1,O=C1CN=C(c2ccccc2)c2cc([N+](=O)[O-])ccc2N1,20.4
2,Cc1noc(NS(=O)(=O)c2ccc(N)cc2)c1C,14.5
3,C=CC1(C)CC(OC(=O)CSCCN(CC)CC)C2(C)C(C)CCC3(CCC(=O)C32)C(C)C1O (stereo not given),18.1
4,COc1cc(Cc2cnc(N)nc2N)cc(OC)c1OC,13.5
5,CC(C)NCC(O)COc1ccc(CC(N)=O)cc1 (stereo not given),11.7
6,CCC1(c2ccccc2)C(=O)NCNC1=O,17
7,COc1cc(NS(=O)(=O)c2ccc(N)cc2)nc(OC)n1,17.5
8,CC(N)Cc1ccc2c(c1)OCO2 (stereo not given),13.6
9,CC1(C)SC2C(NC(=O)C(N)c3ccc(O)cc3)C(=O)N2C1C(=O)O (stereo not given),28.1
10,CN=C(NC#N)NCCSCc1nc[nH]c1C,11.9
11,Cn1c([N+](=O)[O-])cnc1COC(N)=O,13.1
12,COc1ccc(NS(=O)(=O)c2ccc(N)cc2)nn1,16
13,Cn1c(=O)c2c(ncn2C)n(C)c1=O,15.2
14,CC1=C(C(=O)O)N2C(=O)C(NC(=O)C(N)c3ccccc3)C2SC1 (stereo not given),14.3
15,Cc1cc(C)nc(NS(=O)(=O)c2ccc(N)cc2)n1,15
16,CCN1CCCC1CNC(=O)c1cc(S(=O)(=O)CC)c(N)cc1OC (stereo not given),13.4
17,Cc1ncc([N+](=O)[O-])n1CCO,13.2
18,Cc1nc(NS(=O)(=O)c2ccc(N)cc2)oc1C,16
19,CCC1OC(=O)CC(O)C(C)C(OC2OC(C)C(OC3CC(C)(O)C(O)C(C)O3)C(N(C)C)C2O)C(CC=O)CC(C)C(=O)C=CC(C)=CC1COC1OC(C)C(O)C(OC)C1OC (stereo not given),18.3
